We go through eleven molecules from US6358491B1, “Somatostatin analogs” (Berlex Laboratories, Inc., priority 1999, dated 2002).

pIC50: −log10 of the molar value. Read-outs that look alike come from different tables or passages of the source.

One data set deals with SSTRs, NCI-H69 membranes. Put plainly: [125I]SST-14 binding to NCI-H69 cell membranes (SSTR affinity). More on the design: species or system human. As to conditions: inhibition of [125I]SST-14 binding, two-site fit. As for the experimental part:
[^125I-Tyr^11] somatostatin-14 ([^125I]SST-14) was obtained from Amersham. Unlabeled somatostatin-14 was purchased either from BACHEM (Torrance, Calif.) or from Sigma Chemical Co. (St. Louis, Mo.). Protease inhibitors, leupeptin, aprotinin, bacitracin, and benzamidine and other reagents were obtained from Sigma. Protease inhibitors were prepared in dimethylsulfoxide (DMSO) at a concentration 500×higher than the final assay concentration. The prepared protease solution was stored at −20° C. and diluted with the buffer solution before use.
Membrane preparations used in these studies were prepared from two commercially available tumor cell lines, the human small cell lung cancer cell line, NCI-H69, and the rat pancreatic tumor cell line, AR42J, obtained from American Type Culture Collection (ATCC) (Manassas, Va.). NCI-H69 cells were maintained by serial passage in RPMI 1640 with 10% fetal calf serum. AR42J cells were maintained in F-12K medium containing 20% fetal calf serum. Cells in culture flasks were incubated at 37° C. with 5% CO2 in air atmosphere following the recommendations of the “Product Sheet” from ATCC.
Cultured cells were first detached from plates with phosphate-buffered saline, pH 7.4, containing 2 mM EDTA, and centrifuged at 1,500×g for 10 min. Cells were then resuspended in 5-10 mL of the homogenization buffer (1 mM sodium bicarbonate, pH 7.4, 1 mM EDTA, 1 mM EGTA, 2.5 mM DTT, 5 μg/mL leupeptin, 5 μg/mL aprotinin, 100 μg/mL bacitracin, 100 μg/mL benzamidine) for 10 min on ice. The cells were lysed for 30 sec twice in a polytron with a setting at 5. The lysate was centrifuged at 1,000×g for 10 min at 4° C. The supernatant was centrifuged at 40,000×g for 20 min at 4° C. This step was repeated twice with the homogenization buffer in the absence of protease inhibitors. The pellet was then resuspended at 1-5 mg membrane protein/mL in 25 mM Tris, pH 7.4 without the addition of protease inhibitors and the membranes were stored at −80° C. before use. Membrane protein concentration was determined spectroscopically using the bicinchonic acid (BCA) protein assay kit (Pierce Chemical Inc. (Rockford, Ill.).
All [^125I]SST-14 binding assays were performed in 0.5 mL binding buffer containing 50 mM HEPES, pH 7.5, 10 mM MgCl2, 0.25% BSA (w/v) containing protease inhibitors (same as above) and incubated at 37° C. for 45 minutes. After incubation, samples were kept at 4° C. and rapidly filtered under vacuum through a Whatman GF/B glass fiber filter with a 12-well harvester (Skatron Instruments Inc., Sterling, Va.). The filter was washed for 9 seconds with cold 50 mM HEPES, pH 7.5, 10 mM MgCl2, 0.25% BSA (w/v). Thirty-five […] of [^125I]SST-14 from Amersham was used in each tube. Peptides were solubilized in DMSO and serially diluted with DMSO. Five μL of peptide in DMSO was used to obtain the final concentration. DMSO (5 μL) was added to the tube without the addition of any peptide or unlabeled SST-14, so that each tube contained 1% DMSO. Non-specific binding was defined as the binding of [^125I]SST-14 which was not displaceable with an excess of unlabeled SST-14 at a concentration of 1×10^−6 M. The bound [^125I]SST-14 without or with excess unlabeled SST-14 (1×10^−6 M) was defined as total binding and nonspecific binding, respectively. The difference between total and nonspecific binding was defined as specific binding. The percent inhibition (% Inh) by peptide was expressed as
% Inh=(total binding−total binding in the presence of peptide)/specific binding×100%
Inclusion of protease inhibitors in homogenizing medium as well as assay buffer is essential to maintain the integrity of both [^125I]SST-14 and somatostatin analogs for the receptor binding assay and to obtain optimal specific binding. The highest specific binding was observed when MgCl2 (10 mM) was included. Membranes were finally resuspended in a sodium-free medium and receptor binding assays were performed in the absence of sodium ions. […]

The subject of another data set is AR42J tumor xenografts. Put plainly: Biodistribution of 99mTc-labeled compounds in nude mice with AR42J tumor xenografts. The class given is in vivo. As to conditions: 99mTc-labeled compound, 90 minutes post-injection; for TUMOR: i.v.; for T:B: tumor to blood ratio; for T:M: tumor to muscle ratio. The method, then:
Rat pancreatic AR42J cells (ATCC, Rockville, Md., USA) were grown in Modified Ham's F12K medium (Cat. No. N-3520, Sigma, St. Louis, Mo., USA) containing 20% fetal bovine serum (FCS) (Cat. No. 1224, Lot No. 9702058, Sigma, St. Louis, Mo., USA) under sterile conditions in 95% humidity and 5% CO2. At a density of approximately 10×10^6 cells per T150 flask, the cells were harvested with trypsin and collected by centrifugation at 2400 rpm (800×g) for 15 minutes in a benchtop centrifuge (IEC Centra-8 tabletop centrifuge, International Equipment Company, Needham, Mass., USA). The cells were resuspended in medium containing 20% FCS for implantation.
Six female nude mice (CrlLNU/NU-nuBR, 6-8 weeks old) were injected subcutaneously into the right flank with tumor cells (2×10^7/100 μL) in 20% matrigel (Collaborative Biomedical Products, Chicago, Ill., USA). Fourteen days after inoculation tumors were visible in all animals. Three weeks after inoculation, tumors were aseptically dissected, minced and implanted into 60 nude mice using a trochar. The tumor xenografts from the second passage were used for biodistribution studies.
A dose of approximately 50-100 μCi ^99mTc-labeled compound/mouse was injected intravenously in a total volume of 100 μL. Mice were sacrificed 90 minutes post-injection by decapitation and the trunk blood was collected. Tumors (1 to 3 per mouse), liver, gastrointestinal tract, kidneys, and samples of muscle from both legs (quadriceps femoralis) were collected, weighed, and counted for radioactivity.

The conditions of data set [1]: patient, four cycles of treatment; cited from earlier work.
The conditions of data set [2]: 24 hours post-injection, cited from earlier work.
The mark [3] stands for this setting: read-out: IC50 Values for Uncomplexed Compounds, NCI-H69 (first value).
Where [4] appears, read: read-out: IC50 Values for Uncomplexed Compounds, NCI-H69 (second value).

As to `C[C@@H](O)[C@@H]1NC(=O)[C@H](CCCCN)NC(=O)[C@@H](Cc2c[nH]c3ccccc23)NC(=O)[C@H](Cc2ccc(O)cc2)NC(=O)[C@H](CCSCC(=O)N[C@@H](CO)C(=O)N[C@@H](CO)C(=O)N[C@@H](CS)C(=O)NCCOCCOCCN)N(C)C(=O)[C@H](Cc2ccccc2)NC1=O` [cyclo-Tyr-D-Trp-Lys-Thr-Phe-(N—CH3)Hcy(CH2 CO-Ser-Ser-Cys-NH(CH2 CH2 O)2 CH2 CH2 NH2)], the pIC50 in the data set on SSTRs, NCI-H69 membranes (setting [3]) is 9.19. Further, the pIC50 with SSTRs, NCI-H69 membranes (setting [4]) was less than 6.00. In addition, in the data set on AR42J tumor xenografts, the TUMOR stood at 10.6 %ID/g, the “T:B” value stood at 44 and the “T:M” value is listed as 132.

Take `C[C@@H](O)[C@H](NC(=O)CSCC[C@H]1C(=O)N[C@@H](Cc2ccc(O)cc2)C(=O)N[C@H](Cc2c[nH]c3ccccc23)C(=O)N[C@@H](CCCCN)C(=O)N[C@@H]([C@@H](C)O)C(=O)N[C@@H](Cc2ccccc2)C(=O)N1C)C(=O)NCC(=O)NCC(=O)N[C@@H](CS)C(N)=O` [cyclo-Tyr-D-Trp-Lys-Thr-Phe-(N—CH3)Hcy(CH2 CO-Thr-Gly-Gly-Cys-NH2)]: in the data set with SSTRs, NCI-H69 membranes (setting [3]), the pIC50 is 8.79. Further, the pIC50 in the data set with SSTRs, NCI-H69 membranes (setting [4]) was 4.61. In addition, in the data set with AR42J tumor xenografts, the TUMOR was determined as 3.81 %ID/g, the “T:B” value is recorded as 30 and the “T:M” value stood at 95.

Regarding `C[C@@H](O)[C@@H]1NC(=O)[C@H](CCCCN)NC(=O)[C@@H](Cc2c[nH]c3ccccc23)NC(=O)[C@H](Cc2ccc(O)cc2)NC(=O)[C@H](CCSCC(=O)NC[C@H](N)C(=O)N[C@@H](Cc2c[nH]cn2)C(=O)N[C@@H](CS)C(=O)N[C@H](CO)[C@@H](C)O)N(C)C(=O)[C@H](Cc2ccccc2)NC1=O` [cyclo-Tyr-D-Trp-Lys-Thr-Phe-(N—CH3)Hcy(CH2 CO-β-Dap-His-Cys-Thr(ol))], the pIC50 in the data set on SSTRs, NCI-H69 membranes (setting [3]) is 9.06. Moreover, in the data set with AR42J tumor xenografts, the TUMOR came to 15.5 %ID/g, the “T:B” value is reported as 29 and the “T:M” value worked out at 96.

Regarding `C[C@@H](O)[C@@H]1NC(=O)[C@H](CCCCN)NC(=O)[C@@H](Cc2c[nH]c3ccccc23)NC(=O)[C@H](Cc2ccc(O)cc2)NC(=O)[C@H](CCSCC(=O)NC[C@H](N)C(=O)N[C@@H](CCCCN)C(=O)N[C@@H](CS)C(=O)N[C@H](CO)[C@@H](C)O)N(C)C(=O)[C@H](Cc2ccccc2)NC1=O` [cyclo-Tyr-D-Trp-Lys-Thr-Phe-(N—CH3)Hcy(CH2 CO-β-Dap-Lys-Cys-Thr(ol))], the pIC50 in the data set on SSTRs, NCI-H69 membranes (setting [3]) is 9.46. Moreover, the pIC50 in the data set on SSTRs, NCI-H69 membranes (setting [4]) is 6.63. Moreover, in the data set on AR42J tumor xenografts, the TUMOR is 10.2 %ID/g, the “T:B” value was found to be 48 and the “T:M” value is on record as 104.

Take `C[C@@H](O)[C@@H]1NC(=O)[C@H](CCCCN)NC(=O)[C@@H](Cc2c[nH]c3ccccc23)NC(=O)[C@H](Cc2ccc(O)cc2)NC(=O)[C@H](CCSCC(=O)NC[C@H](N)C(=O)N[C@@H](CCCN)C(=O)N[C@@H](CS)C(=O)N[C@H](CO)[C@@H](C)O)N(C)C(=O)[C@H](Cc2ccccc2)NC1=O` [cyclo-Tyr-D-Trp-Lys-Thr-Phe-(N—CH3)Hcy(CH2 CO-β-Dap-Orn-Cys-Thr(ol))]: in the data set with SSTRs, NCI-H69 membranes (setting [3]), the pIC50 is 9.30. In the data set on SSTRs, NCI-H69 membranes (setting [4]), the pIC50 is 6.13. Besides, in the data set with AR42J tumor xenografts, the TUMOR came to 10.3 %ID/g, the “T:B” value was determined as 24 and the “T:M” value is given as 96.

For `C[C@@H](O)[C@@H]1NC(=O)[C@H](CCCCN)NC(=O)[C@@H](Cc2c[nH]c3ccccc23)NC(=O)[C@H](Cc2ccc(O)cc2)NC(=O)[C@H](CCSCC(=O)NC[C@H](N)C(=O)N[C@@H](Cc2ccc(N)cc2)C(=O)N[C@@H](CS)C(=O)N[C@H](CO)[C@@H](C)O)N(C)C(=O)[C@H](Cc2ccccc2)NC1=O` [cyclo-Tyr-D-Trp-Lys-Thr-Phe-(N—CH3)Hcy(CH2 CO-β-Dap-Phe(4-NH2)-Cys-Thr(ol))], the pIC50 with SSTRs, NCI-H69 membranes (setting [3]) was 9.30. Also, the pIC50 in the data set on SSTRs, NCI-H69 membranes (setting [4]) is more than 12.00. Also, in the data set on AR42J tumor xenografts, the TUMOR was 31.8 %ID/g, the “T:B” value was determined as 81 and the “T:M” value came out at 188.

On to `C[C@@H](O)[C@@H]1NC(=O)[C@H](CCCCN)NC(=O)[C@@H](Cc2c[nH]c3ccccc23)NC(=O)[C@H](Cc2ccc(O)cc2)NC(=O)[C@H](CCSCC(=O)NC[C@H](N)C(=O)N[C@@H](CO)C(=O)N[C@@H](CS)C(=O)N[C@H](CO)[C@@H](C)O)N(C)C(=O)[C@H](Cc2ccccc2)NC1=O` [cyclo-Tyr-D-Trp-Lys-Thr-Phe-(N—CH3)Hcy(CH2 CO-β-Dap-Ser-Cys-Thr(ol))], for which the pIC50 in the data set with SSTRs, NCI-H69 membranes (setting [3]) is 8.80. In addition, the pIC50 with SSTRs, NCI-H69 membranes (setting [4]) was more than 12.00. In the data set on AR42J tumor xenografts, the TUMOR stood at 12.6 %ID/g, the “T:B” value is 31 and the “T:M” value amounted to 144.

As to `C[C@@H](O)[C@@H]1NC(=O)[C@H](CCCCN)NC(=O)[C@@H](Cc2c[nH]c3ccccc23)NC(=O)[C@H](Cc2ccc(O)cc2)NC(=O)[C@H](CCSCC(=O)NCCC[C@H](N)C(=O)NCC(=O)N[C@@H](CS)C(N)=O)N(C)C(=O)[C@H](Cc2ccccc2)NC1=O` [cyclo-Tyr-D-Trp-Lys-Thr-Phe-(N—CH3)Hcy(CH2 CO-δ-Orn-Gly-Cys-NH2)], in the data set on AR42J tumor xenografts, the TUMOR was 1.8 %ID/g, the “T:B” value is listed as 29 and the “T:M” value was 95.

On to `C[C@@H](O)[C@@H]1NC(=O)[C@H](CCCCN)NC(=O)[C@@H](Cc2c[nH]c3ccccc23)NC(=O)[C@H](Cc2ccc(O)cc2)NC(=O)[C@H](CCSCC(=O)NC[C@H](N)C(=O)N[C@@H](CCN)C(=O)N[C@@H](CS)C(=O)NC(CO)CO)N(C)C(=O)[C@H](Cc2ccccc2)NC1=O` [cyclo-Tyr-D-Try-Lys-Thr-Phe-(N—CH3)Hcy(CH2 CO-β-Dap-Dab-Cys-Ser(ol))], for which the pIC50 with SSTRs, NCI-H69 membranes (setting [3]) is 8.97. Moreover, in the data set with AR42J tumor xenografts, the TUMOR was found to be 10.8 %ID/g, the “T:B” value is listed as 30 and the “T:M” value came out at 89.

Consider ^90Y-DOTA-lanreotide, for which, in data set [1], the 90Y kidney doses is listed as 1.98-2.43 mGy/MBq and the spleen doses is recorded as 1.68-3.35 mGy/MBq.

With ^111In-DOTA-lanreotide, the “retention in human liver” value in data set [2] was “about 3.2 % injected dose”. In addition, in data set [2] (human), the retention in kidney result is “about 2.5 % injected dose” and the retention in spleen result is “about 1.2 % injected dose”.

By pIC50 is commonly meant the negative decadic logarithm of the IC50, by convention in mol/L.
